Source: US20060069132A1, “Azolecarboxamide herbicides” (priority 2004, published 2006)

Legend:
[1] = tested on: Surinam grass; experiment: Test E pre-/postemergence herbicide test; type: in vivo, Urochloa decumbens; details: Preemergence
Procedure, shortened: (§1)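 Postemergence treatment targeted plants at the 1- to 4-leaf stage (2–18 cm), alongside preemergence treatment of planted seed; both used a non-phytotoxic solvent mixture with surfactant. Visual ratings, 0 = no effect to 100 = complete control, were taken 12 to 14 days later.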

[2] = tested on: green foxtail; experiment: Test C postemergence herbicide test; type: in vivo, Setaria viridis
Procedure, shortened: (§2)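 Weeds and wheat were sprayed after emergence, at a height of 2 to 18 cm (1–4 leaves), and paddy barnyardgrass was flooded and treated at two leaves. Assessment took place 12–14 days later in the greenhouse on a 0-to-100 visual control scale. A dash means no result was obtained.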

[3] = tested on: mustard; experiment: Test E pre-/postemergence herbicide test; type: in vivo, Brassica nigra; details: Preemergence
Procedure, shortened: as §1

[4] = tested on: purple nutsedge; experiment: Test E pre-/postemergence herbicide test; type: in vivo, Cyperus rotundus; details: Preemergence, scale 0 (no effect) to 100 (complete control)
Procedure, shortened: as §1

[5] = tested on: large crabgrass; experiment: Test E pre-/postemergence herbicide test; type: in vivo, Digitaria sanguinalis; details: Preemergence
Procedure, shortened: as §1

[6] = tested on: prickly sida; experiment: Test E pre-/postemergence herbicide test; type: in vivo, Sida spinosa; details: Preemergence
Procedure, shortened: as §1

[7] = tested on: goosegrass; experiment: Test E pre-/postemergence herbicide test; type: in vivo, Eleusine indica; details: Preemergence
Procedure, shortened: as §1

[8] = tested on: winter barley; experiment: Test C postemergence herbicide test; type: in vivo, Hordeum vulgare
Procedure, shortened: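 Ratings (0 = no effect, 100 = complete control) come from visual comparison with untreated plants after 12 to 14 days in the greenhouse. Treatment was postemergence at the 1- to 4-leaf stage (2–18 cm), or at the 2-leaf stage for the flooded paddy barnyardgrass.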

[9] = tested on: blackgrass; experiment: Test C postemergence herbicide test; type: in vivo, Alopecurus myosuroides
Procedure, shortened: as §2

[10] = tested on: common groundsel; experiment: Test E pre-/postemergence herbicide test; type: in vivo, Senecio vulgaris; details: Preemergence
Procedure, shortened: as §1

[11] = tested on: windgrass; experiment: Test C postemergence herbicide test; type: in vivo, Apera spica-venti
Procedure, shortened: as §2

[12] = tested on: canarygrass; experiment: Test C postemergence herbicide test; type: in vivo, Phalaris minor
Procedure, shortened: as §2

[13] = tested on: common purslane; experiment: Test E pre-/postemergence herbicide test; type: in vivo, Portulaca oleracea; details: Preemergence
Procedure, shortened: as §1

[14] = tested on: itchgrass; experiment: Test E pre-/postemergence herbicide test; type: in vivo, Rottboellia cochinchinensis; details: Preemergence
Procedure, shortened: as §1

[15] = 500 g ai/ha, scale 0 (no effect) to 100 (complete control)
[16] = Postemergence, 250 g ai/ha, scale 0 to 100, 0 no effect, 100 complete control
[17] = Postemergence, 500 g ai/ha, scale 0 to 100, 0 no effect, 100 complete control
[18] = postemergence, 125 g ai/ha, scale 0 to 100
[19] = postemergence, 62 g ai/ha, scale 0 to 100
[20] = 250 g ai/ha, scale 0 (no effect) to 100 (complete control)
[21] = Postemergence, 500 g ai/ha, scale 0 to 100

Cc1nn(C(C)(C)C)nc1C(=O)Nc1cccc(C(=O)N(C)C)c1 [Compound 391]
Plant response rating, Surinam Grass ([1]; 125 g ai/ha, scale 0 to 100): 70
Plant response rating, Surinam Grass [1, 15]: 100
Plant response rating, Foxtail, Green [2, 16]: 60
Plant response rating, Foxtail, Green [2, 17]: 65
Plant response rating, Foxtail, Green [2, 18]: 55
Plant response rating, Foxtail, Green [2, 19]: 55
Plant response rating, Black Mustard ([3]; 62 g ai/ha, scale 0 to 100): 50
Plant response rating, Black Mustard ([3]; 125 g ai/ha, scale 0 to 100): 80
Plant response rating, Black Mustard [3, 20]: 100
Plant response rating, Black Mustard [3, 15]: 100
Plant response rating, Nutsedge, Purple ([4]; 250 g ai/ha): 75
Plant response rating, Nutsedge, Purple ([4]; 500 g ai/ha): 75
Plant response rating, Crabgrass, Large ([5]; 62 g ai/ha, scale 0 to 100): 60
Plant response rating, Crabgrass, Large ([5]; 125 g ai/ha, scale 0 to 100): 95
Plant response rating, Crabgrass, Large [5, 20]: 95
Plant response rating, Crabgrass, Large [5, 15]: 95
Plant response rating, Prickly Sida ([6]; 62 g ai/ha, scale 0 to 100): 50
Plant response rating, Prickly Sida ([6]; 125 g ai/ha, scale 0 to 100): 100
Plant response rating, Prickly Sida [6, 20]: 100
Plant response rating, Prickly Sida [6, 15]: 100
Plant response rating, Goosegrass ([7]; 62 g ai/ha, scale 0 to 100): 30
Plant response rating, Goosegrass ([7]; 125 g ai/ha, scale 0 to 100): 80
Plant response rating, Goosegrass [7, 20]: 90
Plant response rating, Goosegrass [7, 15]: 95
Barley, Winter plant response rating [8, 21]: 30
Plant response rating, Barley, Winter [8, 16]: 30
Plant response rating, Barley, Winter ([8]; postemergence, 125 g ai/ha, scale 0 to 100 (0 no effect, 100 complete control)): 10
Plant response rating, Barley, Winter ([8]; postemergence, 62 g ai/ha, scale 0 to 100 (0 no effect, 100 complete control)): 10
Blackgrass plant response rating [9, 21]: 65
Plant response rating, Blackgrass [9, 16]: 55
Plant response rating, Blackgrass [9, 18]: 45
Plant response rating, Blackgrass [9, 19]: 40
Plant response rating, Groundsel ([10]; 125 g ai/ha, scale 0 to 100): 95
Plant response rating, Groundsel [10, 20]: 100
Plant response rating, Groundsel [10, 15]: 100
Plant response rating, Windgrass [11, 17]: 70
Plant response rating, Windgrass [11, 18]: 65
Plant response rating, Windgrass [11, 19]: 60
Plant response rating, Canarygrass [12, 16]: 60
Plant response rating, Canarygrass [12, 17]: 65
Plant response rating, Canarygrass [12, 18]: 40
Plant response rating, Canarygrass [12, 19]: 40
Plant response rating, Purslane ([13]; 62 g ai/ha, scale 0 to 100): 50
Plant response rating, Purslane ([13]; 125 g ai/ha, scale 0 to 100): 95
Plant response rating, Purslane [13, 20]: 100
Plant response rating, Purslane [13, 15]: 100
Plant response rating, Itchgrass ([14]; 62 g ai/ha, scale 0 to 100): 50
Plant response rating, Itchgrass ([14]; 125 g ai/ha, scale 0 to 100): 80
Plant response rating, Itchgrass [14, 20]: 90
Plant response rating, Itchgrass [14, 15]: 95
